Experiment [1] in a line: ABTS method, ABTS+. free radical scavenging. Conditions: 25° C., 5 min, 730 nm, from linear equation of scavenging rate vs concentration; read-out: IC50 for scavenging ABTS^+. free radicals. How it is done:
Determination of […]. free radical ion scavenging capacity of the blank sample: at 25° C., 2.9 mL ABTS^+. free radical ion working solution was added into a 10 mL sample tube, 100 μL DMSO was added, after reacting for 5 min, the UV-vis spectrum was measured, and the absorption intensity A0 at 730 nm was recorded.
Determination of ABTS^+. free radical ion scavenging capacity of the samples: at 25° C., 2.9 mL ABTS^+. free radical ion working solution was added into a 10 mL sample tube, 100 μL samples of different concentrations that were dissolved in DMSO were added, after reacting for 5 min, the UV-vis spectrum was measured, and the absorption intensity A1 at 730 nm was recorded, and the ABTS^+. free radical ion scavenging rate was calculated according to Formula 4.
The ABTS^+. free radical scavenging capacities of the Ame and the Ame-Zn complex are concentration dependent. Within a certain range, the scavenging rate is linear with the concentration. The curve of the scavenging rate and the concentration (c) is plotted in the present invention to obtain a corresponding linear equation, and the maximum half-inhibitory concentration (IC50 value) is calculated.

Experiment [2] is described as follows: Pyrogallol auto-oxidation method, O2-. free radical scavenging. Conditions: Tris-HCl pH 8.20, 25° C., 322 nm, read-out: IC50 to scavenge O2^−. free radical. How it is done: The free radical scavenging effects of the Ame and the Ame-Zn complex were studied by pyrogallol auto-oxidation method and ABTS method with the following steps:
(1) Pyrogallol Auto-Oxidation Method
Determination of auto-oxidation rate V0 of pyrogallol: 2 mL Tris-HCl buffer (pH=8.20) was added to a 10 mL sample tube at 25° C., 100 μL DMSO was added as a control, after adding 0.8 mL distilled water, 0.2 mL pyrogallol solution having a concentration of 2 mmol·L^−1 was added, the mixture was poured into a cuvette after mixing uniformly, the absorbance at 322 nm was measured with pure water as a blank, the A value was recorded every 10 s for a total of 4 min, linear regression was performed with t as the abscissa, and A as the ordinate, straight line slope thereof is V0, and the measurement was performed for three times to obtain an average value. […]

Another experiment has as its system herring sperm DNA (fDNA). Nature of the experiment: Interaction with fDNA by UV-vis spectroscopy, fluorescence spectroscopy and viscosity method. The experiment is classed as binding. As to conditions: UV-vis, fluorescence (fDNA-EB system), viscosity. The text has this: UV-vis spectroscopy, fluorescence spectroscopy and viscosity method are used to study the interaction between the Ame/Ame-Zn complex and herring sperm DNA (fDNA) to further reveal the mechanism of antitumor activity, the obtained spectra are shown in FIGS. 7-11. […] Thereby, it can be speculated that the mechanism of antitumor activity of the Ame and its complex may be that Ame or the complex thereof enters the interior of the cell and intercalates with the DNA strand to cause apoptosis. Since the interaction of the complex with DNA is stronger than of the Ame, the antitumor activity thereof is also stronger than of the Ame.

A word on the IC50: it is the concentration that inhibits the measured activity by half. For `O=c1cc(-c2ccc(O)c(-c3c(O)cc(O)c4c(=O)cc(-c5ccc(O)cc5)oc34)c2)oc2cc(O)cc(O)c12` [Ame, amentoflavone], the 50% inhibitory concentration (IC50) stood at 20.7 µM in experiment [1] and 23.3 µM in experiment [2]. In addition, the “manner of interaction with fDNA” value with herring sperm DNA (fDNA) is “intercalation manner”.

(Values after patent US10815254B2, “Biflavone-zinc complex, preparation method and application thereof” (NANJING FORESTRY UNIVERSITY, priority 2017, dated 2020).)
